Data on 12 molecules can be found in article PMC9000415, “Discovery of Novel Epoxyketone Peptides as Lipase Inhibitors” (Molecules, 2022).

Test [1] deals with T1, porcine PL (pancreatic lipase) (Sus scrofa, UniProt P00591).
T1 construct: Lipase from porcine pancreas, Type II; purchased Sigma Aldrich L3126; host or cells: porcine pancreas (tissue-derived)
T1 sequence (P00591 1-450): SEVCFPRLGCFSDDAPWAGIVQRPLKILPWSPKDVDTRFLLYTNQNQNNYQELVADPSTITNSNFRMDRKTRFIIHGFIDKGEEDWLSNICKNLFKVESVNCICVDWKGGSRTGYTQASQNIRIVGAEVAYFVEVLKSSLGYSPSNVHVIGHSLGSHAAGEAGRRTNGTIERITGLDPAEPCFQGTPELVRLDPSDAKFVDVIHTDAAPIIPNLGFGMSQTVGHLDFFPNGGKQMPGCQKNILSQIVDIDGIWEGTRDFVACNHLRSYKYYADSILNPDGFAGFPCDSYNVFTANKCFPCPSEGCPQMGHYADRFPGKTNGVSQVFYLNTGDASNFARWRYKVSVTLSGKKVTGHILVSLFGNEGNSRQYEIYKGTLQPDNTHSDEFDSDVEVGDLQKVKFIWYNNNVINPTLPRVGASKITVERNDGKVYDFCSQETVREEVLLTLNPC
The test is described as follows: GC-FID based anti-lipase assay (phenyl acetate hydrolysis). It counts as biochemical. The conditions noted are these: for IC50: porcine pancreatic lipase, phenyl acetate substrate, GC-FID, read-out: IC50 (nM) against PL. As to the method:
All chemicals and solvents were purchased from commercial suppliers (Amman, Jordan) and used without further purification. Anhydrous solvents were distilled from sodium and benzophenone before use. NMR (The University of Jordan, Amman, Jordan) spectra were recorded on a Varian 500 MHz spectrometer (500 and 125 MHz for the ^1H and ^13C nuclei, respectively) using CDCl3 as solvents and spectra were referenced to residual solvent as internal standard (for CDCl3 δH 7.26 and δC 77.1). LC-HRMS data for analysis of compounds 3−13 were obtained on an Agilent 6239 HR-ESI-TOFMS (UCSD, San Diego, CA, USA) equipped with a Phenomenex Luna 5 µm C18 100 Å column (4.6 × 250 mm). LCMS data for purity analysis of the synthesized compounds 3−13 were obtained with a Thermo Finnigan Surveyor Autosampler-Plus/LC-PumpPlus/PDA-Plus system and a Thermo Finnigan LCQ Advantage Max mass spectrometer (monitoring m/z 150−2000 in positive ion mode) using a linear gradient of 30–100% H2O/acetonitrile over 30 min; flow rate of 0.9 mL/min (UCSD, San Diego, CA, USA). Semipreparative HPLC (UCSD, San Diego, CA, USA) purification was carried out using a Waters 515 with a Waters 996 photodiode array detector using Empower Pro software. […] Chemical shifts (δ) are given in parts per million (ppm) and coupling constants (J) are reported in Hertz (Hz). The compounds are named in accordance with IUPAC rules as applied by ChemBioDraw Ultra (version 20.1.1) (software provided by the University of Jordan, Amman, Jordan). GCMS analysis: Thermo Scientific Focus gas chromatography coupled to a flame ionization […] was used to analyze the samples. A total of 1.0 µL sample was injected into the Thermo Scientific Focus GC-FID equipped with a split/spitless injector (split ratio, 2.5). The column was HP-5 (DP-5) capillary column stationary phase. Helium was the carrier gas at a flow rate of 1.0 mL/min. Linear temperature program was applied from 100 to 250 °C at 5 °C/min. The specific run time of analysis for each sample was […]. The temperatures of the injector base and the detector were maintained at 250 °C, 250 °C respectively. Lipase from porcine pancreas, Type II, 100–650 units/mg protein (product# L3126) was purchased from Sigma Aldrich (Amman, Jordan).
All tested compounds were dissolved in DMSO to prepare a stock solution (of each compound) having a known concentration. A proper aliquot of each tasted compound was obtained by further dilution of the stock. Samples were prepared and analyzed for their phenyl acetate content by adopting an internal standard procedure. the sample analysis performed using GC-FID. For each sample, 50 µL of 2 mg/mL pancreatic lipase, phenyl acetate (1 mM), and 50 µL of each candidate inhibitor. […] Subsequently, the samples were left for overall time of 20 min vortex and centrifuged for approximately 3 min. For extraction of the phenyl acetate remain in the aqueous layer the nonpolar solvent chloroform containing the internal standard added, then vortex and centrifuged and the chloroform removed to another tube for the GC-FID analysis.
The linearity, RSD, LOD, and LOQ were evaluated for the method of analysis. […] The LOD and LOQ both was measured using the signal-to-noise method. The ratio of the analyte signal to the peak-to-peak noise signal around it was measured of (3:1) which is generally accepted signal-to-noise ratio (S/N) for the LOD estimation.

In test [2] the test system is CCD-1064Sk fibroblast cell line. Kind of test: Cytotoxicity, MTT assay, fibroblasts. Format: cell-based. The conditions noted are these: Homo sapiens, 72 h exposure. As to the method:
(§1) All the cell line that were used in this study are (CCD-1064SK) the human normal skin fibroblast and HepG2 hepatoma cell line. The CCD-1064SK and HepG2 cell line was purchased from American Type Culture Collection (ATCC, Manassas, VA, USA). Cells were cultured in Iscove’s medium as recommended from ATCC. Media was supplement with 10% heated fetal bovine serum, 1% of 2 Mm L-glutamine, and (100 IU/mL) penicillin/(100 ug/mL) streptomycin. According to the cells growth profile, cells were seeded with a density of 10 × 10^4 cell/well. Cell viability was determined by trypan blue exclusion using a hemocytometer. For the cytotoxicity assay, cells were washed with phosphate buffer saline (PBS). PBS was decanted and cells detached with 0.025% trypsin-EDTA (EuroClone). Media was added to a volume of 10 mL. The cell suspension was centrifuged at 1000 rpm for 10 min and the pellet was resuspended in 10 mL medium to make a single cell suspension. Viability of the cells was determined by trypan blue exclusion, and it exceeded 90% as counted in a hemocytometer. The cell suspension was diluted afterwards to give the optimal seeding density and 100 uL of the cell suspension was plated in a 96 well plate. Cells were cultured at 37 °C in a humidified atmosphere of 5% CO2. After 24 h the cells were treated with different concentrations of tested compounds, (each compound was initially dissolved in DMSO). Initially, 100 and 50 ug/mL of each extract were tested. The active compounds were those which gave less than 50% survival at exposure time 72 h. The final dilution for all prepared concentrations used for treating the cells contained not more than 0.01% of the initial solvent (DMSO), this concentration being used in the solvent control wells. At the end of the exposure time, cell growth was analyzed using the MTT assay. MTT assay: After 72 h of incubation, 15 µL of MTT stock solution (Promega) (5 mg/mL in sterile phosphate-buffered saline, pH 7.4) was added to each well. After the cells were incubated for 3 h in the presence of MTT, 100 µL of solubilizing stop solution was added to each well to solubilize the dark violet formazan crystals. The optical densities at 570 nm were then measured using a microplate reader. The results were expressed as a percentage of cell viability with respect to a control corresponding to untreated cells.

A further test concerns HepG2 hepatoma cell line. The test is described as follows: Cytotoxicity, MTT assay, HepG2. It counts as cell-based. The conditions noted are these: Homo sapiens, 72 h exposure, read-out: HepG2 Cells IC50. As to the method:
as §1

The next test concerns dietary fat absorption. The conditions noted are these: therapeutic dose; cited from earlier work.

Each structure is given as a SMILES string.

On to `CCCCCCCCCCCC(=O)N[C@@H](CCCC)C(=O)N[C@@H](Cc1ccc(F)cc1F)C(=O)[C@@]1(C)CO1` [Analogue 4, N-((S)-1-(((S)-3-(2,4-difluorophenyl)-1-((R)-2-methyloxiran-2-yl)-1-oxopropan-2-yl)amino)-1-oxohexan-2-yl)dodecanamide], for which the IC50 in test [1] was 9.3 ± 2.5 nM; in test [2] it was greater than 15000 nM; in the test on HepG2 hepatoma cell line it was 2320 nM.

`C[C@]1(C(=O)[C@@H](N)Cc2ccc(F)cc2F)CO1` [Analogue 9, (S)-2-amino-3-(2,4-difluorophenyl)-1-((R)-2-methyloxiran-2-yl)propan-1-one]: the values for the IC50 (in test [1]; in test [2]; in the test on HepG2 hepatoma cell line) were 41.5 ± 7.1 nM, greater than 15000 nM and greater than 15000 nM, respectively.

As to `CCCCCC(=O)N[C@H](C(=O)N[C@@H](CCS(C)(=O)=O)C(=O)N[C@@H](CC(C)C)C(=O)[C@@]1(C)CO1)C(C)C` [carmaphycin B (2), carmaphycin B, reference compound], the IC50 in test [1] was 25 ± 1.1 nM.

Turning to `CC(C)(C)OC(=O)N[C@@H](Cc1ccccc1)C(=O)[C@@]1(C)CO1` [Analogue 7, tert-butyl ((S)-1-((R)-2-methyloxiran-2-yl)-1-oxo-3-phenylpropan-2-yl)carbamate], the IC50 in test [1] is 49.1 ± 11.4 nM; in test [2], greater than 15000 nM; in the test on HepG2 hepatoma cell line, greater than 15000 nM.

Regarding `CC(C)C[C@H](NC(=O)OC(C)(C)C)C(=O)[C@@]1(C)CO1` [Analogue 8, tert-butyl ((S)-4-methyl-1-((R)-2-methyloxiran-2-yl)-1-oxopentan-2-yl)carbamate], the IC50 in test [1] was 120 ± 15.2 nM; in test [2] it was greater than 15000 nM; in the test on HepG2 hepatoma cell line it was greater than 15000 nM.

For the molecule `C[C@]1(C(=O)[C@@H](N)Cc2ccccc2)CO1` [Analogue 10], the IC50 in test [1] was 73.1 ± 9.8 nM; in test [2], greater than 15000 nM; in the test on HepG2 hepatoma cell line, greater than 15000 nM.

Regarding `CC(C)(C)OC(=O)N[C@@H](Cc1ccc(F)cc1)C(=O)[C@@]1(C)CO1` [Analogue 6, tert-butyl ((S)-3-(4-fluorophenyl)-1-((R)-2-methyloxiran-2-yl)-1-oxopropan-2-yl)carbamate], the values for the IC50 (in test [1]; in test [2]; in the test on HepG2 hepatoma cell line) were 46.4 ± 3.7 nM, greater than 15000 nM and greater than 15000 nM, respectively.

For the molecule `C=C(C)C(=O)[C@H](Cc1ccc(F)cc1F)NC(=O)OC(C)(C)C` [Analogue 13, tert-butyl (S)-(1-(2,4-difluorophenyl)-4-methyl-3-oxopent-4-en-2-yl)carbamate], the “inhibition of PL at the highest concentration tested” value in test [1] (10 µM) is reported as “did not inhibit”. For the same molecule, the IC50 was greater than 10000 nM in test [1], greater than 15000 nM in test [2] and greater than 15000 nM in the test with HepG2 hepatoma cell line.

Consider `CCCCCCCCCCCC(=O)N[C@@H](Cc1ccc(F)cc1F)C(=O)[C@@]1(C)CO1` [Analogue 3, N-((S)-3-(2,4-difluorophenyl)-1-((R)-2-methyloxiran-2-yl)-1-oxopropan-2-yl)dodecanamide], for which the IC50 is 29.3 ± 2.4 nM in test [1], greater than 15000 nM in test [2] and 2600 nM with HepG2 hepatoma cell line.

On to `CC(C)(C)OC(=O)N[C@@H](Cc1ccc(F)cc1F)C(=O)[C@]1(C)CO1` [Analogue 11, tert-butyl ((S)-3-(2,4-difluorophenyl)-1-((S)-2-methyloxiran-2-yl)-1-oxopropan-2-yl)carbamate], for which the IC50 in test [1] is 29 ± 4.2 nM; in test [2], greater than 15000 nM; with HepG2 hepatoma cell line, greater than 15000 nM.

In the case of `CC(C)(C)OC(=O)N[C@@H](Cc1ccc(F)cc1F)C(=O)[C@@]1(C)CO1` [Analogue 5, tert-butyl ((S)-3-(2,4-difluorophenyl)-1-((R)-2-methyloxiran-2-yl)-1-oxopropan-2-yl)carbamate], the IC50 in test [1] was 29.4 ± 4.8 nM; in test [2], greater than 15000 nM; in the test on HepG2 hepatoma cell line it was greater than 15000 nM.

Regarding `CCCCCCCCCCC[C@@H](C[C@@H]1OC(=O)[C@H]1CCCCCC)OC(=O)[C@H](CC(C)C)NC=O` [orlistat (1), orlistat], the “inhibition of dietary fat absorption” value in the test on dietary fat absorption is given as “approximately 30%”.
